target: T1, eIF2Bα (Homo sapiens, UniProt Q14232); experiment: MIDAS (mass spectrometry integrated with equilibrium dialysis) metabolite binding screen; conditions: not given
T1 construct: made in house; host or cells: E. coli BL21(DE3)
T1 sequence (Q14232 1-305): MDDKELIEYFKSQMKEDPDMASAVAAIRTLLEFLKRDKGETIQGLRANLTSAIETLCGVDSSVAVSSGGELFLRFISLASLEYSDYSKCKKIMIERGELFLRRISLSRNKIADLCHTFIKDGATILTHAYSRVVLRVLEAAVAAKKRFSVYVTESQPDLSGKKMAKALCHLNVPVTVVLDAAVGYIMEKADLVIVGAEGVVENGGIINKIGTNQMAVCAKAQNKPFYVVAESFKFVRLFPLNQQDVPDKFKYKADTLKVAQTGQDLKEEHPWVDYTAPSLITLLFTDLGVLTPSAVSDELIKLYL
Method in brief: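 Hits called at Storey q < 0.1 on z-scores of PCA-corrected log2 fold change between protein and metabolite chambers, quantified by FIA-MS in triplicate.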

Row | Molecule | log2(corrected fold change)
1 | Orotidine 5-monophosphate | 0.07073

same assay, conditions: MIDAS metabolite binding screen with eIF2Bα; sheet "eIF2Ba"

Row | Molecule | log2(corrected fold change)
2 | Cc1ncc(COP(=O)(O)O)c(C=O)c1O [Pyridoxal 5-phosphate] | 0.1983
3 | O=C(O)Cc1cnc[nH]1 [4-Imidazoleacetic acid] | 0.01796
4 | Cc1ncc(CO)c(CN)c1O [Pyridoxamine] | 0.0724
5 | Cn1cnc(CCN)c1 [1-Methylhistamine] | -0.03686
6 | NC1CCCNC1=O (centres unmarked) [3-Aminopiperidin-2-one] | 0.003124
7 | CC(C)C[C@H](N)C(=O)O [L-Leucine] | -0.00688
8 | CCCCCCCCCC(=O)O [Decanoic acid] | 0.004891
9 | O=C(O)CCCCCCCCCCC(=O)O [Dodecanedioic acid] | 0.00577
10 | OC[C@H]1O[C@H](O[C@H]2O[C@H](CO)[C@@H](O)[C@H](O)[C@H]2O)[C@H](O)[C@@H](O)[C@@H]1O [D-Trehalose] | -0.02052
11 | Nc1ccn([C@H]2C[C@H](O)[C@@H](COP(=O)(O)OP(=O)(O)OP(=O)(O)O)O2)c(=O)n1 [Deoxycytidine triphosphate] | -0.0001501
12 | Nc1nc2c(ncn2[C@@H]2O[C@H](COP(=O)(O)OP(=O)(O)O[C@H]3O[C@H](CO)[C@@H](O)[C@H](O)[C@@H]3O)[C@@H](O)[C@H]2O)c(=O)[nH]1 [Guanosine diphosphate mannose] | 0.001828
13 | O=C(CO)N[C@H]1[C@H]([C@H](O)[C@H](O)CO)OC(O)(C(=O)O)C[C@@H]1O (some centres unmarked) [N-Glycolylneuraminic acid] | -0.02217
14 | COc1cc(CC(=O)O)ccc1O [Homovanillic acid] | -0.006498
15 | O=C(O)CC[C@H](O)C(=O)O [L-Hydroxyglutaric acid] | -0.0058
16 | O=C(O)[C@@H](O)[C@H](O)[C@H](O)[C@@H](O)C(=O)O [D-galactaric acid] | 0.01388
17 | CCC(C(=O)O)C(=O)O [Ethylmalonic acid] | -0.03876
18 | CC(=CC(=O)O)CC(=O)O [3-Methylglutaconic acid] | -0.01192
19 | CCC(C)C(=O)NCC(=O)O (centres unmarked) [a-Methylbutyrylglycine] | -0.07333
20 | CCCC(=O)SCCNC(=O)CCNC(=O)[C@H](O)C(C)(C)COP(=O)(O)OP(=O)(O)OC[C@H]1O[C@@H](n2cnc3c(N)ncnc32)[C@H](O)[C@@H]1OP(=O)(O)O [Butyryl coenzyme A] | 0.07019

Row | Molecule | log2(corrected fold change)
21 | N[C@@H](CO)C(=O)O [L-Serine] | -0.04824
22 | CCCCCCCC(=O)O [Octanoic acid] | -0.007345
23 | O=C(O)CCO [3-Hydroxypropionic acid] | -0.02892
24 | Nc1nc2c(ncn2[C@H]2C[C@H](O)[C@@H](COP(=O)(O)OP(=O)(O)OP(=O)(O)O)O2)c(=O)[nH]1 [2-Deoxyguanosine 5-triphosphate] | 0.05437
25 | Nc1ncnc2c1ncn2[C@H]1C[C@H](O)[C@@H](COP(=O)(O)OP(=O)(O)O)O1 [Deoxyadenosine diphosphate] | -0.1103
26 | NC(=O)c1ccc[n+]([C@@H]2O[C@H](COP(=O)([O-])OP(=O)(O)OC[C@H]3O[C@@H](n4cnc5c(N)ncnc54)[C@H](O)[C@@H]3O)[C@@H](O)[C@H]2O)c1 [Nicotinamide adenine dinucleotide] | -0.063
27 | OC[C@H]1OC(O)[C@@H](O)[C@@H](O)[C@@H]1O (stereo partly drawn) [D-Mannose] | -0.01874
28 | O=C(O)c1cc(O)c2cccc(O)c2n1 [Xanthurenic acid] | -0.07533
29 | CC(O)(CC(=O)O)C(=O)O (centres unmarked) [Citramalate] | -0.0058
30 | Nc1ncnc2c1ncn2[C@H]1C[C@H](O)[C@@H](COP(=O)(O)O)O1 [Deoxyadenosine monophosphate] | -0.0746
31 | O=C(CO)[C@@H](O)[C@H](O)CO [D-Xylulose] | -0.0769
32 | NCCS(=O)(=O)O [Taurine] | -0.01154
33 | O=C(O)C(COP(=O)(O)O)OP(=O)(O)O [2,3-Diphospho-D-glyceric acid] | 0.003153
34 | CN(C)CC(=O)O [N,N-Dimethylglycine] | 0.0213
35 | OC[C@H]1O[C@H](OC[C@H]2O[C@H](O[C@]3(CO)O[C@H](CO)[C@@H](O)[C@@H]3O)[C@H](O)[C@@H](O)[C@@H]2O)[C@H](O)[C@@H](O)[C@H]1O [D-Raffinose] | -0.02977
36 | O=C[C@H](O)CO [D-Glyceraldehyde] | -0.02892
37 | NC(CP(=O)(O)O)C(=O)O (racemic) [DL-2-Amino-3-phosphonopropionic acid] | -0.05707
38 | CC(=O)N[C@H]1C(O)O[C@H](CO)[C@@H](O)[C@@H]1O[C@H](C)C(=O)O (some centres unmarked) [N-Acetylmuramic acid] | 0.002532

same assay, conditions: MIDAS screen, sheet eIF2Ba; metabolites screened in pools 1-4; p-value and q-value given

Row | Molecule | log2(corrected fold change)
39 | O=C(O)C(O)c1ccccc1 (racemic) [DL-Mandelic acid] | 0.3212
40 | CC(=O)NCCCCN [N-Acetylputrescine] | -0.2203
41 | Cc1c[nH]c(=O)[nH]c1=O [Thymine] | -0.1153
42 | CCC(=O)SCCNC(=O)CCNC(=O)[C@H](O)C(C)(C)COP(=O)(O)OP(=O)(O)OC[C@H]1O[C@@H](n2cnc3c(N)ncnc32)[C@H](O)[C@@H]1OP(=O)(O)O [Propionyl coenzyme A] | 0.4521
43 | Nc1ncnc2c1ncn2[C@H]1C[C@H](O)[C@@H](COP(=O)(O)OP(=O)(O)OP(=O)(O)O)O1 [2-Deoxyadenosine 5-triphosphate] | -0.07151
44 | O=C(O)C/C=C/CC(=O)O [Trans-beta-Hydromuconic acid] | 0.04348
45 | COc1ccc2[nH]cc(CC(=O)O)c2c1 [5-Methoxy-3-indoleacetic acid] | -0.03075
46 | Nc1ccccc1C(=O)C[C@H](N)C(=O)O [L-Kynurenine] | 0.1418
47 | CCC(C)C(=O)C(=O)O (centres unmarked) [3-Methyl-2-oxovaleric acid] | -0.05419
48 | O=CNc1ccccc1C(=O)O [N-Formylanthranilic acid] | 0.2026
49 | NCCS(=O)O [Hypotaurine] | 0.03998
50 | O=P(O)(O)O[C@H]1O[C@H](CO)[C@@H](O)[C@H](O)[C@H]1O [D-Glucose 1-phosphate] | -0.1344
51 | NCCCN [1,3-Diaminopropane] | 0.2387
52 | O=C(O)C=Cc1c[nH]cn1 [4-Imidazoleacrylic acid] | -0.125
53 | O=c1[nH]cnc2nc[nH]c12 [Hypoxanthine] | 0.136
54 | Cc1ncc(CO)c(CO)c1O [Pyridoxine] | -0.04546
55 | Nc1nc2c(ncn2[C@@H]2O[C@H](COP(=O)(O)OP(=O)(O)OP(=O)(O)O)[C@@H](O)[C@H]2O)c(=O)[nH]1 [Guanosine 5-triphosphate] | 0.3966
56 | C[C@H](O)CC(=O)O [(S)-3-Hydroxybutyric acid] | 0.07137

Row | Molecule | log2(corrected fold change)
57 | O=P(O)(O)OC1O[C@H](CO)[C@@H](O)[C@H](O)[C@@H]1O (some centres unmarked) [Mannose 1-phosphate] | -0.1344
58 | Nc1ncnc2c1ncn2[C@@H]1O[C@H](CSCC[C@H](N)C(=O)O)[C@@H](O)[C@H]1O [S-(5-Adenosyl)-L-homocysteine] | -0.01949
59 | NC(N)=NCC(=O)O [Guanidineacetic acid] | 0.1469
60 | N[C@@H](Cc1cc(I)c(O)c(I)c1)C(=O)O [3,5-Diiodo-L-tyrosine] | 0.05791
61 | CC(=O)N[C@@H](C)C(=O)O [N-Acetyl-L-alanine] | 0.07527
62 | O=C(CO)[C@@H](O)[C@H](O)[C@H](O)CO [D-Fructose] | -0.09045
63 | O=C(O)[C@H](O)[C@@H](O)[C@H](O)[C@H](O)COP(=O)(O)O [6-Phosphogluconic acid] | -0.1601
64 | O=C(O)Cc1ccccc1O [2-Hydroxyphenylacetic acid] | -0.07366
65 | CC(=O)CC(=O)SCCNC(=O)CCNC(=O)[C@H](O)C(C)(C)COP(=O)(O)OP(=O)(O)OC[C@H]1O[C@@H](n2cnc3c(N)ncnc32)[C@H](O)[C@@H]1OP(=O)(O)O [Acetoacetyl coenzyme A] | 0.4297
66 | CC(=O)N[C@H]1C(O)O[C@H](CO)[C@H](O)[C@@H]1O (stereo partly drawn) [N-Acetyl-D-galactosamine] | 0.3673
67 | O=c1[nH]cnc2c1ncn2[C@@H]1O[C@H](CO)[C@@H](O)[C@H]1O [Inosine] | 0.3045
68 | OC[C@@H](O)[C@H](O)[C@H](O)[C@@H](O)CO [Dulcitol] | -0.4944
69 | O=C(O)C(O)COP(=O)(O)O [D-3-Phosphoglyceric acid] | 0.07991
70 | NC(=O)NCCC(=O)O [3-Ureidopropionic acid] | 0.07649
71 | O=C(O)C[C@H](Nc1ncnc2c1ncn2[C@@H]1O[C@H](COP(=O)(O)O)[C@@H](O)[C@H]1O)C(=O)O [Adenylosuccinic acid] | -0.03472
72 | O=C(O)CNC(=O)Cc1ccccc1 [Phenylacetylglycine] | 0.07604
73 | O=C(O)CCCc1ccccc1 [4-Phenylbutanoic acid] | 0.03839
74 | CC(=O)OCC[N+](C)(C)C [Acetylcholine] | -0.07879
